Experiment [1] addresses T1, AChE (from electric eel) (Electrophorus electricus, UniProt O42275).
T1 construct: AChE (from electric eel); from tissue
Kind of experiment: biochemical. The note with it: for inhibition at 50 µM: read-out: inhibition percentage AchE.

Experiment [2] addresses T2, bovine thrombin (Bos taurus, UniProt P00735).
T2 construct: purchased Sigma-Aldrich (Milan, Italy)
Kind of experiment: thrombin inhibition, chromogenic substrate S-2238. The experiment is classed as biochemical.

The target in experiment [3] is α-chymotrypsin (Bos taurus, UniProt P00766). Kind of experiment: α-chymotrypsin inhibition. Type of experiment: biochemical. The note with it: read-out: Ki αCHT.
Experiment [4] deals with T3, human fXa (Homo sapiens, UniProt P00742).
T3 construct: purchased Chromogenix AB-Instrumentation Laboratories (Milan, Italy)
T3 sequence (P00742 235-488 limits assumed): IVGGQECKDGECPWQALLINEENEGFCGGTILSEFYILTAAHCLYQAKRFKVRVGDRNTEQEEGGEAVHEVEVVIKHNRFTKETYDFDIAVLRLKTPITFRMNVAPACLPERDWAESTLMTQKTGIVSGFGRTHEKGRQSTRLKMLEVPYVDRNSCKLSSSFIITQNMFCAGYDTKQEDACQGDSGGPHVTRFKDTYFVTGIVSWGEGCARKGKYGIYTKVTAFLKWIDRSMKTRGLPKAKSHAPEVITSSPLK
T3 sequence (P00742 41-179 partner limits assumed): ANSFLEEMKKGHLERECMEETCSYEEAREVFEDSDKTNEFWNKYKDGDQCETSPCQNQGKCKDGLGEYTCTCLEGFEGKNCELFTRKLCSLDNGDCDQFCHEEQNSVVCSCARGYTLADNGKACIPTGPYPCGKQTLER
The experiment in a line: biochemical.

The target of experiment [5] is T4, BChE (from horse serum) (Equus caballus, UniProt P81908).
T4 construct: BChE (from horse serum); from tissue; host or cells: horse serum
T4 sequence (P81908 whole entry): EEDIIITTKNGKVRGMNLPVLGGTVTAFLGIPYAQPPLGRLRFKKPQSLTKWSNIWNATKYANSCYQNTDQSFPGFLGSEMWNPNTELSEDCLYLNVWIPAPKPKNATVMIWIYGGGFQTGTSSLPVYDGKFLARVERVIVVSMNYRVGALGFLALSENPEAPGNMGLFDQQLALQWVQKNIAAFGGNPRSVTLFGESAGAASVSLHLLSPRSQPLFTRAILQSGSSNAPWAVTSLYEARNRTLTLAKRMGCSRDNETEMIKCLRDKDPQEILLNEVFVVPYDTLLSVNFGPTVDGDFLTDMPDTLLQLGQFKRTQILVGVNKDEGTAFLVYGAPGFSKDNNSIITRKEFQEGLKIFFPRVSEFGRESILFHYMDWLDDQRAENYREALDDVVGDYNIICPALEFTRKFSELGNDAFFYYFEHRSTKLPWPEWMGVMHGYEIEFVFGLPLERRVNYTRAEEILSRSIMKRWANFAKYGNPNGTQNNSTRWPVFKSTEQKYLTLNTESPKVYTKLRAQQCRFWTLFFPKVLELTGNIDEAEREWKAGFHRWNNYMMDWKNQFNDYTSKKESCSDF
Kind of experiment: biochemical. The conditions noted are these: for inhibition at 50 µM: read-out: inhibition percentage BchE.

The mark [6] stands for this setting: Cheng–Prusoff from IC50, pH 8, mean of three measurements, read-out: Ki fXa.
Setting [7] is: horse serum BChE, Cheng–Prusoff from IC50.
Setting [8] is: electric eel AChE, Cheng–Prusoff from IC50, read-out: Ki AchE.

Where “and” joins values, the source holds several entries; their conditions need not be identical. Identical values can stand only once. Like-named read-outs stand apart in the source and are kept apart here.

T1 sequence (O42275 24-633): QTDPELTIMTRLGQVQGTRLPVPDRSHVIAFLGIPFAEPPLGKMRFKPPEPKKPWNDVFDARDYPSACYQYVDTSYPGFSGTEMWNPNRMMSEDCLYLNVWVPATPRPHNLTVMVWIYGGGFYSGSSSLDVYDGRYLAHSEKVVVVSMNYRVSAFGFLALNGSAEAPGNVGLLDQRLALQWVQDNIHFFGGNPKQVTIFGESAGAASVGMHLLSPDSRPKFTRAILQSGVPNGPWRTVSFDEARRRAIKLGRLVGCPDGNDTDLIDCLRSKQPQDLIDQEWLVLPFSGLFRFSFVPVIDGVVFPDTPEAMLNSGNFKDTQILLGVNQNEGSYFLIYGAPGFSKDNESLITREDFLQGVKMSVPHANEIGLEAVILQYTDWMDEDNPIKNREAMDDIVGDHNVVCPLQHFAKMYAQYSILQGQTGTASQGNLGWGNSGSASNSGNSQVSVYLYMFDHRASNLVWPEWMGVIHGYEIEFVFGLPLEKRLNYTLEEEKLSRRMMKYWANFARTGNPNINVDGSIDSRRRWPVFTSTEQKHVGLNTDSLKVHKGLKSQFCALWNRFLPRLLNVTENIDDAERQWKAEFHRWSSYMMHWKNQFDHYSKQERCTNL

The inhibition is the relative decrease from the control value, in per cent. A word on the Ki: it is the equilibrium dissociation constant of an inhibitor or competing ligand from its target. With `N=C(N)c1cccc(NC(=O)CC(=O)Nc2ccc(OC3CCNCC3)cc2)c1` [Compound 23a], the inhibition at 50 µM in experiment [1] was determined as 1%. Also, the Ki was 42.4 µM in experiment [2], more than 50 µM in experiment [3], 0.59 µM in experiment [4] (setting [6]) and 10 µM in experiment [5] (setting [7]).
Regarding `N=C(N)c1cccc(NC(=O)CC(=O)NCc2ccccc2)c1` [Compound 18b], the Ki was more than 50 µM in experiment [2] and 12.3 µM in experiment [4] (setting [6]).
Consider `CC(C)(C(=O)NCc1ccc(-c2ccc(F)cc2F)cc1)C(=O)Nc1cccc(C(=N)N)c1` [Compound 19l], for which the inhibitory constant (Ki) in experiment [1] is 3.74 µM; in experiment [2], more than 50 µM; in experiment [3], more than 50 µM; in experiment [4] (setting [6]), 0.214 µM; in experiment [5] (setting [7]), 1.55 µM.
On to `N=C(N)c1ccc(NC(=O)CC(=O)NCCc2ccccc2)cc1` [Compound 18c], for which the Ki in experiment [2] and in experiment [4] (setting [6]) was more than 50 µM in each case.
For `N=C(N)c1ccc(NC(=O)CC(=O)NCCCc2ccccc2)cc1` [Compound 18d], the inhibition constant (Ki) in experiment [2] was 25.5 µM; in experiment [4] (setting [6]), 39.8 µM.
For the compound `N=C(N)c1ccc(NC(=O)CNC(=O)Cc2ccccc2)cc1` [Compound 4a], the Ki in experiment [2] was 39.4 µM; in experiment [4] (setting [6]), more than 50 µM.
In the case of `COc1ccc(CCOc2cccc(NC(=O)CC(=O)Nc3cccc(C(=N)N)c3)c2)cc1` [Compound 20b], the Ki in experiment [1] (setting [8]) was 1.56 µM; in experiment [2], 6.66 µM; in experiment [3], more than 50 µM; in experiment [4] (setting [6]) it was 0.205 µM; in experiment [5] (setting [7]) it was 5.84 µM.
As to `N=C(N)c1cccc(NC(=O)CC(=O)NCc2ccc(-c3ccc(F)cc3)cc2)c1` [Compound 19g], the Ki in experiment [1] (setting [8]) is 4.48 µM; in experiment [2] it was 6.19 µM; in experiment [3], more than 50 µM; in experiment [4] (setting [6]), 0.91 µM and 0.907 µM. For the same compound, the inhibition at 50 µM in experiment [5] worked out at 37%.
As to `N=C(N)c1cccc(NC(=O)CC(=O)N2CCC(Oc3ccc(F)cc3F)CC2)c1` [Compound 22b], the Ki is 2.31 µM in experiment [1] (setting [8]), more than 50 µM in experiment [2], more than 50 µM in experiment [3] and 0.089 µM in experiment [4] (setting [6]). Besides, in experiment [5], the inhibition at 50 µM was 25%.
`N=C(N)c1cccc(NC(=O)CC(=O)NCc2ccc(-c3cccc(F)c3)cc2)c1` [Compound 19f]: the inhibition constant (Ki) in experiment [1] (read-out: Ki AchE) was 8.11 µM; in experiment [2] it was 18.8 µM; in experiment [3] it was 26.5 µM; in experiment [4] (setting [6]), 0.35 µM and 0.348 µM; in experiment [5] it was 8.09 µM.
`N=C(N)c1cccc(NC(=O)CC(=O)N2CCC(Oc3ccc(F)cc3)CC2)c1` [Compound 22a]: the Ki in experiment [1] (setting [8]) is 1.88 µM; in experiment [2], more than 50 µM; in experiment [3], more than 50 µM; in experiment [4] (setting [6]) it was 0.35 µM. Besides, the inhibition at 50 µM in experiment [5] was 22%.
On to `N=C(N)c1cccc(NC(=O)CNC(=O)Cc2ccc(-c3ccc(F)cc3F)cc2)c1` [Compound 4c], for which the values for the inhibition constant (Ki) in experiment [2], in experiment [3] and in experiment [4] (setting [6]) were 10.7 µM, 35 µM and 1.01 µM, respectively. Also, the “decrease of anti-fXa activity from malonamide 19h to glycinamide 4c” value in experiment [4] (ratio of Ki, relative to 19h) is listed as “about 20 times”.
Take `N=C(N)c1cccc(NC(=O)CC(=O)Nc2cccc(OCCc3ccc(F)cc3)c2)c1` [Compound 20a]: the inhibitory constant (Ki) in experiment [1] (setting [8]) is 10 µM; in experiment [2], 12 µM; in experiment [3] it was more than 50 µM; in experiment [4] (setting [6]), 0.413 µM; in experiment [5] (setting [7]), 1.02 µM.
With `N=C(N)c1ccc(NC(=O)CC(=O)NCCCCc2ccccc2)cc1` [Compound 18e], the results for the Ki in experiment [2] and in experiment [4] (setting [6]) were 5.5 µM and 18.6 µM, respectively.
For `N=C(N)c1ccc(NC(=O)CC(=O)NCc2ccccc2)cc1` [Compound 18a], in that order: more than 50 µM and 23.2 µM.
Take `N=C(N)c1cccc(NC(=O)CC(=O)NCc2ccc(-c3ccccc3)cc2)c1` [Compound 19d]: the Ki in experiment [1] (setting [8]) is 9.33 µM; in experiment [2], more than 50 µM; in experiment [3], 4.3 µM; in experiment [4] (setting [6]), 1.56 µM. Besides, the inhibition at 50 µM in experiment [5] worked out at 28%.
Regarding `N=C(N)c1cccc(NC(=O)CC(=O)N2CCC(Oc3ccc(F)c(F)c3)CC2)c1` [Compound 22c], the Ki was 2.68 µM in experiment [1] (setting [8]); 27 µM in experiment [2]; more than 50 µM in experiment [3]; 0.12 µM in experiment [4] (setting [6]); 10.9 µM in experiment [5] (setting [7]).
As for `Cc1ccc(CNC(=O)CC(=O)Nc2ccc(C(=N)N)cc2)cc1` [Compound 19a], the Ki in experiment [2] turned out to be 36.5 µM; in experiment [4] (setting [6]), 4.4 µM.
For `CC(C)N1CCC(Oc2ccc(NC(=O)CC(=O)Nc3cccc(C(=N)N)c3)cc2)CC1` [Compound 23b], the Ki is 1.3 µM in experiment [1] (setting [8]); more than 50 µM in experiment [2]; more than 50 µM in experiment [3]; 2.3 µM in experiment [4] (setting [6]); 0.65 µM in experiment [5] (setting [7]).
As to `N=C(N)c1cccc(NC(=O)CNC(=O)Cc2ccccc2)c1` [Compound 4b], the Ki in experiment [2] came to 24.1 µM; in experiment [4] (setting [6]), 25.6 µM.
For `N=C(N)c1cccc(NC(=O)CC(=O)N2CCN(c3ccc(F)cc3)CC2)c1` [Compound 21a], the Ki was 4.68 µM in experiment [1] (setting [8]); 31.4 µM in experiment [2]; more than 50 µM in experiment [3]; 0.423 µM in experiment [4] (setting [6]); 10 µM in experiment [5] (setting [7]).
Regarding `N=C(N)c1cccc(NC(=O)CC(=O)NCc2ccc(-c3ccc(F)cc3F)cc2)c1` [Compound 19h], the Ki is 2.44 µM in experiment [1] (setting [8]); 16.1 µM in experiment [2]; more than 50 µM in experiment [3]; 0.057 µM in experiment [4] (setting [6]); 0.057 µM in experiment [4] (read-out: Ki against fXa); 1.52 µM in experiment [5] (setting [7]).
Take `N=C(N)c1cccc(NC(=O)CC(=O)NCc2ccc(-c3cc(F)cc(F)c3)cc2)c1` [Compound 19i]: the inhibition at 50 µM in experiment [1] was found to be 5%. In addition, the Ki was 26.7 µM in experiment [2], 30.2 µM in experiment [3], 0.264 µM in experiment [4] (setting [6]) and 8.02 µM in experiment [5] (setting [7]).
With `Cc1ccc(CNC(=O)CC(=O)Nc2cccc(C(=N)N)c2)cc1` [Compound 19b], the values for the Ki in experiment [2] and in experiment [4] (setting [6]) were 36.6 µM and 4.2 µM, respectively.
For `N=C(N)c1ccc(NC(=O)CC(=O)NCc2ccc(-c3ccccc3)cc2)cc1` [Compound 19c], in that order: more than 50 µM and more than 50 µM.
Consider `N=C(N)c1cccc(NC(=O)CC(=O)NCc2ccc(-c3ccccc3F)cc2)c1` [Compound 19e], for which, in experiment [1], the inhibition at 50 µM was 35%. The inhibition constant (Ki) was 14.6 µM in experiment [2]; more than 50 µM in experiment [3]; 0.93 µM and 0.932 µM in experiment [4] (setting [6]); 7.7 µM in experiment [5] (setting [7]).

Values taken from PMC9268553 (Molecules, 2022).
